Measurements: paper PMC5218480 (PLoS ONE, 2017)

Tested on: MV-4-11 cells
Assay: Gene expression microarray analysis (Affymetrix PrimeView) and GSEA
Format: cell-based, human
Set-up: RFU PODN (11730768_x_at) / Fold change /veh PODN (11730768_x_at) / RFU LINC00158 (11744669_a_at) / Fold change /veh LINC00158 (11744669_a_at) / RFU DUSP10 (11751237_a_at) / Fold change /veh DUSP10 (11751237_a_at) / RFU ID3 (11757404_x_at) / Fold change /veh ID3 (11757404_x_at) / RFU PLEKHG5 (11737974_s_at) / Fold change /veh PLEKHG5 (11737974_s_at) / RFU LRRC4B (11730491_at) / Fold change /veh LRRC4B (11730491_at) / RFU GIMAP4 (11747438_a_at) / Fold change /veh GIMAP4 (11747438_a_at) / RFU KRT8 (11758183_x_at) / Fold change /veh KRT8 (11758183_x_at) / RFU CNN1 (11734310_a_at) / Fold change /veh CNN1 (11734310_a_at) / RFU VPS37D (11726825_at) / Fold change /veh VPS37D (11726825_at) / RFU C10orf10 (11716522_x_at) / Fold change /veh C10orf10 (11716522_x_at) / RFU KIR2DL2 /// KIR2DL4 /// KIR2DL5A /// KIR2DL5B /// KIR2DS1 /// KIR2DS2 /// KIR2DS3 /// KIR2DS4 /// KIR3DL3 /// KIR3DL3 /// KIR3DS1 (11738374_at) / Fold change /veh KIR2DL2 /// KIR2DL4 /// KIR2DL5A /// KIR2DL5B /// KIR2DS1 /// KIR2DS2 /// KIR2DS3 /// KIR2DS4 /// KIR3DL3 /// KIR3DL3 /// KIR3DS1 (11738374_at) / RFU C1QL1 (11718748_at) / Fold change /veh C1QL1 (11718748_at) / RFU TMPRSS4 (11747572_a_at) / Fold change /veh TMPRSS4 (11747572_a_at) / RFU HAMP (11756126_x_at) / Fold change /veh HAMP (11756126_x_at) / RFU RNFT2 (11725882_a_at) / Fold change /veh RNFT2 (11725882_a_at) / RFU NR4A2 (11747474_a_at) / Fold change /veh NR4A2 (11747474_a_at) / RFU ABCC12 (11746883_a_at) / Fold change /veh ABCC12 (11746883_a_at) / RFU TMEM136 (11760407_x_at) / Fold change /veh TMEM136 (11760407_x_at) / RFU CLDN22 /// WWC2 (11732394_at) / Fold change /veh CLDN22 /// WWC2 (11732394_at) / RFU HLA-DPB1 (11760878_x_at) / Fold change /veh HLA-DPB1 (11760878_x_at) / RFU SPINT1 (11716480_a_at) / Fold change /veh SPINT1 (11716480_a_at) / RFU GAP43 (11754022_s_at) / Fold change /veh GAP43 (11754022_s_at) / RFU A4GNT (11735810_at) / Fold change /veh A4GNT (11735810_at) / RFU PRB3 (11715151_x_at) / Fold change /veh PRB3 (11715151_x_at) / RFU TUBB4B (11761932_at) / Fold change /veh TUBB4B (11761932_at) / RFU CAPN14 (11732068_a_at) / Fold change /veh CAPN14 (11732068_a_at) / RFU TMCC2 (11721928_a_at) / Fold change /veh TMCC2 (11721928_a_at) / RFU IRGQ (11745062_a_at) / Fold change /veh IRGQ (11745062_a_at) / RFU FAM174B (11720279_a_at) / Fold change /veh FAM174B (11720279_a_at) / RFU TMPRSS4 (11748680_a_at) / Fold change /veh TMPRSS4 (11748680_a_at) / RFU FAM212B (11763350_a_at) / Fold change /veh FAM212B (11763350_a_at) / RFU PLEKHG5 (11743358_a_at) / Fold change /veh PLEKHG5 (11743358_a_at) / RFU ZSCAN30 (11745921_a_at) / Fold change /veh ZSCAN30 (11745921_a_at) / RFU CMKLR1 (11741424_a_at) / Fold change /veh CMKLR1 (11741424_a_at) / RFU LOC101060620 /// MAPK8IP1 (11723275_at) / Fold change /veh LOC101060620 /// MAPK8IP1 (11723275_at) / RFU SPTSSB (11747773_x_at) / Fold change /veh SPTSSB (11747773_x_at) / RFU PRSS12 (11739890_at) / Fold change /veh PRSS12 (11739890_at) / RFU BIN1 (11741810_x_at) / Fold change /veh BIN1 (11741810_x_at) / RFU WNT11 (11732464_a_at) / Fold change /veh WNT11 (11732464_a_at) / RFU C10orf10 (11716521_a_at) / Fold change /veh C10orf10 (11716521_a_at) / RFU C5orf56 (11738089_at) / Fold change /veh C5orf56 (11738089_at) / RFU CYB561 (11721691_x_at) / Fold change /veh CYB561 (11721691_x_at) / RFU ANKRD19P (11752326_a_at) / Fold change /veh ANKRD19P (11752326_a_at) / RFU OR2T12 /// OR2T33 /// OR2T8 (11738714_s_at) / Fold change /veh OR2T12 /// OR2T33 /// OR2T8 (11738714_s_at) / RFU VCAN (11748164_a_at) / Fold change /veh VCAN (11748164_a_at) / RFU JSRP1 (11732532_at) / Fold change /veh JSRP1 (11732532_at) / RFU KRTAP10-11 (11738290_x_at) / Fold change /veh KRTAP10-11 (11738290_x_at) / RFU MYO3A (11730013_a_at) / Fold change /veh MYO3A (11730013_a_at) / RFU EBF3 (11725865_a_at) / Fold change /veh EBF3 (11725865_a_at) / RFU CAMK2N1 (11719241_x_at) / Fold change /veh CAMK2N1 (11719241_x_at) / RFU C5orf56 (11738088_a_at) / Fold change /veh C5orf56 (11738088_a_at) / RFU OLFML3 (11715873_a_at) / Fold change /veh OLFML3 (11715873_a_at) / RFU LOC100653217 /// NTM (11731650_a_at) / Fold change /veh LOC100653217 /// NTM (11731650_a_at) / RFU MAPK11 (11762145_a_at) / Fold change /veh MAPK11 (11762145_a_at) / RFU FIZ1 (11724087_x_at) / Fold change /veh FIZ1 (11724087_x_at) / RFU OASL (11726364_x_at) / Fold change /veh OASL (11726364_x_at) / RFU SOX15 (11748057_x_at) / Fold change /veh SOX15 (11748057_x_at) / RFU CD79A (11719716_a_at) / Fold change /veh CD79A (11719716_a_at) / RFU HIST1H1D (11736915_at) / Fold change /veh HIST1H1D (11736915_at) / RFU CASKIN2 (11723855_a_at) / Fold change /veh CASKIN2 (11723855_a_at) / RFU LOC730098 (11760151_x_at) / Fold change /veh LOC730098 (11760151_x_at) / RFU OR4N2 (11742367_at) / Fold change /veh OR4N2 (11742367_at) / RFU PRRT2 (11749266_a_at) / Fold change /veh PRRT2 (11749266_a_at) / RFU SNX32 (11753110_a_at) / Fold change /veh SNX32 (11753110_a_at) / RFU CDHR5 (11726645_a_at) / Fold change /veh CDHR5 (11726645_a_at) / RFU RCAN1 (11760418_a_at) / Fold change /veh RCAN1 (11760418_a_at) / RFU FAM167A (11723789_a_at) / Fold change /veh FAM167A (11723789_a_at) / RFU FAM26E (11764081_at) / Fold change /veh FAM26E (11764081_at) / RFU ISYNA1 (11749810_s_at) / Fold change /veh ISYNA1 (11749810_s_at) / RFU ACY1 (11761880_at) / Fold change /veh ACY1 (11761880_at) / RFU 11764098_at / Fold change /veh 11764098_at / RFU SAMD14 (11745864_x_at) / Fold change /veh SAMD14 (11745864_x_at) / RFU NPB (11741838_a_at) / Fold change /veh NPB (11741838_a_at) / RFU TMPRSS6 (11731388_a_at) / Fold change /veh TMPRSS6 (11731388_a_at) / RFU KRTAP10-2 (11738614_at) / Fold change /veh KRTAP10-2 (11738614_at) / RFU ARHGAP8 /// PRR5-ARHGAP8 (11727945_x_at) / Fold change /veh ARHGAP8 /// PRR5-ARHGAP8 (11727945_x_at) / RFU KRTAP5-7 /// NADSYN1 (11734609_at) / Fold change /veh KRTAP5-7 /// NADSYN1 (11734609_at) / RFU RASL12 (11751679_a_at) / Fold change /veh RASL12 (11751679_a_at) / RFU CDKN2B (11736163_a_at) / Fold change /veh CDKN2B (11736163_a_at) / RFU PRF1 (11729649_at) / Fold change /veh PRF1 (11729649_at) / RFU, ZNF638 /// ZNF638-IT1 / Fold change vs veh, ZNF638 /// ZNF638-IT1 / RFU, PANK3 / Fold change vs veh, PANK3 / RFU, SH3YL1 / Fold change vs veh, SH3YL1 / RFU, ZEB2 / Fold change vs veh, ZEB2 / RFU, NRIP1 / Fold change vs veh, NRIP1 / RFU, PTTG1IP / Fold change vs veh, PTTG1IP / RFU, CAPN2 / Fold change vs veh, CAPN2 / RFU, MED14 / Fold change vs veh, MED14 / RFU, SNORA58 / Fold change vs veh, SNORA58 / RFU, C1orf63 / Fold change vs veh, C1orf63 / RFU, LRRFIP1 / Fold change vs veh, LRRFIP1 / RFU, NDUFAF7 / Fold change vs veh, NDUFAF7 / RFU, SLC12A2 / Fold change vs veh, SLC12A2 / RFU, IBTK / Fold change vs veh, IBTK / RFU, ESF1 / Fold change vs veh, ESF1 / Fold change vs veh, TMEM50B / RFU, TAOK1 / Fold change vs veh, TAOK1 / RFU, ACBD3 / Fold change vs veh, ACBD3 / RFU, TMA16 / Fold change vs veh, TMA16 / RFU, RWDD3 / Fold change vs veh, RWDD3 / RFU, BCAT1 / Fold change vs veh, BCAT1 / RFU, EDEM3 / Fold change vs veh, EDEM3 / RFU, TMEM33 / Fold change vs veh, TMEM33 / RFU, WDR75 / Fold change vs veh, WDR75 / RFU, AHCTF1 / Fold change vs veh, AHCTF1 / RFU, TFRC / Fold change vs veh, TFRC / RFU, ZDHHC17 / Fold change vs veh, ZDHHC17 / RFU, NOM1 / Fold change vs veh, NOM1 / RFU, ARL8B / Fold change vs veh, ARL8B / RFU, ZBTB11 / Fold change vs veh, ZBTB11 / RFU, TAMM41 / Fold change vs veh, TAMM41 / RFU, KIAA1704 /// LOC100996395 / Fold change vs veh, KIAA1704 /// LOC100996395 / RFU, ING1 / Fold change vs veh, ING1 / RFU, TRMT61B / Fold change vs veh, TRMT61B / RFU, FUBP3 / Fold change vs veh, FUBP3 / RFU, TP53 / Fold change vs veh, TP53 / RFU, TNKS2 / Fold change vs veh, TNKS2 / RFU, ZFP14 / Fold change vs veh, ZFP14 / RFU, ACTR2 / Fold change vs veh, ACTR2 / RFU, PPP3R1 / Fold change vs veh, PPP3R1 / RFU, PIK3R1 / Fold change vs veh, PIK3R1 / RFU, HNRNPA1 / Fold change vs veh, HNRNPA1 / RFU, RNF170 / Fold change vs veh, RNF170 / RFU, ZNF28 / Fold change vs veh, ZNF28 / RFU, RNGTT / Fold change vs veh, RNGTT / RFU, OGT / Fold change vs veh, OGT / RFU, BRD1 / Fold change vs veh, BRD1 / RFU, MARS / Fold change vs veh, MARS / RFU, ZNF655 / Fold change vs veh, ZNF655 / RFU, FAHD1 / Fold change vs veh, FAHD1 / RFU, BDP1 / Fold change vs veh, BDP1 / RFU, LRRCC1 / Fold change vs veh, LRRCC1 / RFU, ARID1A / Fold change vs veh, ARID1A / RFU, ZNF146 / Fold change vs veh, ZNF146 / RFU, ZNF330 / Fold change vs veh, ZNF330 / RFU, GPN3 / Fold change vs veh, GPN3 / RFU, C9orf123 / Fold change vs veh, C9orf123 / RFU, N4BP2L2 / Fold change vs veh, N4BP2L2 / RFU, ARFIP1 / Fold change vs veh, ARFIP1 / RFU, FAM179B / Fold change vs veh, FAM179B / RFU, BCL10 / Fold change vs veh, BCL10 / RFU, UHRF1BP1L / Fold change vs veh, UHRF1BP1L / RFU, BET1 / Fold change vs veh, BET1 / RFU, CNOT2 / Fold change vs veh, CNOT2 / RFU, ZNF268 / Fold change vs veh, ZNF268 / Fold change vs veh, ZNF507 / RFU, DGCR2 / Fold change vs veh, DGCR2 / RFU, WDSUB1 / Fold change vs veh, WDSUB1 / Fold change vs veh, HSP90B1 /// MIR3652 / RFU, ADSS / Fold change vs veh, ADSS / RFU, GK / Fold change vs veh, GK / RFU, ZNF148 / Fold change vs veh, ZNF148 / RFU, TAF9 / Fold change vs veh, TAF9 / RFU, SLC1A5 / Fold change vs veh, SLC1A5 / RFU, SLMO2 / Fold change vs veh, SLMO2 / RFU, ABCC4 / Fold change vs veh, ABCC4 / RFU, LOC101060439 /// RAP1B / Fold change vs veh, LOC101060439 /// RAP1B / RFU, RFX7 / Fold change vs veh, RFX7 / RFU, GTPBP10 / Fold change vs veh, GTPBP10 / RFU, CNEP1R1 / Fold change vs veh, CNEP1R1 / RFU, BIVM-ERCC5 /// ERCC5 / Fold change vs veh, BIVM-ERCC5 /// ERCC5 / RFU, ILF3 / Fold change vs veh, ILF3 / RFU 11762660_at / Fold change /veh 11762660_at / RFU VCAN (11757783_s_at) / Fold change /veh VCAN (11757783_s_at) / RFU DDX43 (11728927_at) / Fold change /veh DDX43 (11728927_at) / RFU KRT8 (11758188_x_at) / Fold change /veh KRT8 (11758188_x_at) / RFU NKD1 (11759106_at) / Fold change /veh NKD1 (11759106_at) / RFU SRD5A1 (11742802_a_at) / Fold change /veh SRD5A1 (11742802_a_at) / RFU TPSAB1 /// TPSB2 (11721975_s_at) / Fold change /veh TPSAB1 /// TPSB2 (11721975_s_at) / RFU GSTM3 (11746129_a_at) / Fold change /veh GSTM3 (11746129_a_at) / RFU IL23R (11737362_x_at) / Fold change /veh IL23R (11737362_x_at) / RFU TMEM51 (11727254_a_at) / Fold change /veh TMEM51 (11727254_a_at) / RFU PIWIL2 (11732686_x_at) / Fold change /veh PIWIL2 (11732686_x_at) / RFU ORM1 (11744905_x_at) / Fold change /veh ORM1 (11744905_x_at) / RFU CCDC152 (11743942_at) / Fold change /veh CCDC152 (11743942_at) / RFU ECM1 (11717891_a_at) / Fold change /veh ECM1 (11717891_a_at) / RFU IL23R (11748794_a_at) / Fold change /veh IL23R (11748794_a_at) / RFU TNFAIP8L3 (11732012_x_at) / Fold change /veh TNFAIP8L3 (11732012_x_at) / RFU MBOAT4 (11741988_at) / Fold change /veh MBOAT4 (11741988_at) / RFU 11764193_at / Fold change /veh 11764193_at / RFU TMEM53 (11763286_at) / Fold change /veh TMEM53 (11763286_at) / RFU MAGEB2 (11727129_at) / Fold change /veh MAGEB2 (11727129_at) / RFU TMEM200A (11744735_a_at) / Fold change /veh TMEM200A (11744735_a_at) / RFU CCDC152 (11751479_a_at) / Fold change /veh CCDC152 (11751479_a_at) / RFU FAM211A (11726209_a_at) / Fold change /veh FAM211A (11726209_a_at) / RFU RGS16 (11746705_a_at) / Fold change /veh RGS16 (11746705_a_at) / RFU VCAN (11755009_s_at) / Fold change /veh VCAN (11755009_s_at) / RFU RHOB (11743442_s_at) / Fold change /veh RHOB (11743442_s_at) / RFU RGS16 (11720943_a_at) / Fold change /veh RGS16 (11720943_a_at) / RFU RGS16 (11720944_at) / Fold change /veh RGS16 (11720944_at) / RFU, VPS4B / Fold change vs veh, VPS4B / RFU, CREB1 / Fold change vs veh, CREB1 / RFU, DNAJC13 / Fold change vs veh, DNAJC13 / RFU, GNAQ / Fold change vs veh, GNAQ / RFU, CDK5R1 / Fold change vs veh, CDK5R1 / RFU, ZRANB3 / Fold change vs veh, ZRANB3 / RFU, CUL4A / Fold change vs veh, CUL4A / RFU, CCNY / Fold change vs veh, CCNY / RFU, UFL1 / Fold change vs veh, UFL1 / RFU, COG3 / Fold change vs veh, COG3 / RFU, DIAPH2 / Fold change vs veh, DIAPH2 / RFU, SKA2 / Fold change vs veh, SKA2 / RFU, AFF3 / Fold change vs veh, AFF3 / RFU, LMF1 / Fold change vs veh, LMF1 / RFU, IPO11 / Fold change vs veh, IPO11 / RFU, DFFB / Fold change vs veh, DFFB / RFU, FOXP1 / Fold change vs veh, FOXP1 / RFU, CARD8 / Fold change vs veh, CARD8 / RFU, STRN3 / Fold change vs veh, STRN3 / RFU, ADK / Fold change vs veh, ADK / RFU, RASSF2 / Fold change vs veh, RASSF2 / RFU, WIPF1 / Fold change vs veh, WIPF1 / RFU, LARP1B / Fold change vs veh, LARP1B / RFU, RASA1 / Fold change vs veh, RASA1 / RFU, RB1 / Fold change vs veh, RB1 / RFU, PPFIA1 / Fold change vs veh, PPFIA1 / RFU, MAT2A / Fold change vs veh, MAT2A / RFU, CCT5 / Fold change vs veh, CCT5 / RFU, WDR92 / Fold change vs veh, WDR92 / RFU, CUX1 / Fold change vs veh, CUX1 / RFU, TTC7A / Fold change vs veh, TTC7A / RFU, TMEM135 / Fold change vs veh, TMEM135 / RFU, DEPTOR / Fold change vs veh, DEPTOR / RFU, CPM / Fold change vs veh, CPM / RFU, DNAJB6 / Fold change vs veh, DNAJB6 / RFU, CACNA2D3 / Fold change vs veh, CACNA2D3 / RFU, DTX4 / Fold change vs veh, DTX4 / RFU, TFCP2 / Fold change vs veh, TFCP2 / RFU, GMCL1 /// GMCL1P1 / Fold change vs veh, GMCL1 /// GMCL1P1 / RFU, AEBP2 / Fold change vs veh, AEBP2 / RFU, SNHG1 /// SNORD22 /// SNORD25 /// SNORD26 /// SNORD27 /// SNORD28 /// SNORD29 /// SNORD31 / Fold change vs veh, SNHG1 /// SNORD22 /// SNORD25 /// SNORD26 /// SNORD27 /// SNORD28 /// SNORD29 /// SNORD31 / Fold change (Aza/veh), C12orf56 (ProbeSet 11735607_a_at) / Fold change (ACY-1035/veh), C12orf56 (ProbeSet 11735607_a_at) / Fold change (Aza/veh), FGFR1OP (ProbeSet 11751329_s_at) / Fold change (ACY-1035/veh), FGFR1OP (ProbeSet 11751329_s_at) / Fold change (Aza/veh), VPS36 (ProbeSet 11739960_a_at) / Fold change (ACY-1035/veh), VPS36 (ProbeSet 11739960_a_at) / RFU SYPL1 (11715823_x_at) / Fold change /veh SYPL1 (11715823_x_at) / RFU IGFBP7 (11715501_s_at) / Fold change /veh IGFBP7 (11715501_s_at) / RFU REEP3 (11722064_at) / Fold change /veh REEP3 (11722064_at) / RFU IGLL1 (11728026_x_at) / Fold change /veh IGLL1 (11728026_x_at): dose or concentration left out as unconfirmed
Conditions: ProbeSet 11729173_a_at; LIST D

In the case of `Nc1ncn([C@@H]2O[C@H](CO)[C@@H](O)[C@H]2O)c(=O)n1` [azacitidine], the “RFU, SKA2” value is reported as 326.42 RFU.
